Laboratory results taken from ChEMBL document CHEMBL5058564, “EUbOPEN Chemogenomics Library 2 (Incucyte)” (2022).

What was measured:
Format in all cases: toxicity, cell-based
Fibroblast = assay: Incucyte cell viability with human fibroblast; conditions: 10 µM, compound concentration 10 uM
U2OS = assay: Incucyte cell viability with U2OS; conditions: human, 10 µM, compound concentration 10 uM
HEK-293T = assay: Incucyte cell viability with HEK293T; conditions: human, 10 µM, compound concentration 10 uM
[1] = 0 h, replicate number 1, timepoint 0 hours
[2] = 0 h, replicate number 2, timepoint 0 hours
[3] = 6 h, replicate number 1, timepoint 6 hours
[4] = 6 h, replicate number 2, timepoint 6 hours
[5] = 12 h, replicate number 1, timepoint 12 hours
[6] = 12 h, replicate number 2, timepoint 12 hours
[7] = 18 h, replicate number 1, timepoint 18 hours
[8] = 18 h, replicate number 2, timepoint 18 hours
[9] = 24 h, replicate number 1, timepoint 24 hours
[10] = 24 h, replicate number 2, timepoint 24 hours
Note: unitless GR value; below 1 slowed growth and below 0 cell loss.

| SMILES | Growth Rate (Fibroblast; [3]) | Growth Rate (Fibroblast; [4]) | Growth Rate (Fibroblast; [5]) | Growth Rate (Fibroblast; [6]) | Growth Rate (Fibroblast; [7]) | Growth Rate (Fibroblast; [9]) | Growth Rate (Fibroblast; [10]) | Growth Rate (U2OS; [2]) | Growth Rate (U2OS; [6]) | Growth Rate (U2OS; [7]) | Growth Rate (U2OS; [8]) | Growth Rate (U2OS; [9]) | Growth Rate (HEK-293T; [3]) | Growth Rate (HEK-293T; [5]) | Growth Rate (HEK-293T; [7]) | Growth Rate (HEK-293T; [8]) | Growth Rate (HEK-293T; [9]) | Growth Rate (HEK-293T; [10]) | Growth Rate (U2OS; [5]) | Growth Rate (HEK-293T; [6]) | also measured |
| --- | --- | --- | --- | --- | --- | --- | --- | --- | --- | --- | --- | --- | --- | --- | --- | --- | --- | --- | --- | --- | --- |
| S=C(NCCCc1c[nH]cn1)NCCCN(Cc1ccc(Cl)c(Cl)c1)c1ccc(Br)cn1 | -0.23 | 0.5 | 0.17 | 0.18 | -0.18 | -0.16 | 0.74 | -1 | 0.84 | 0.88 | 0.68 | 0.83 | 0.16 | 0.08 | 0.15 | 0.19 | 0.15 | 0.2 |  |  | Growth Rate (Fibroblast; [1]): 0.28; Growth Rate (Fibroblast; [2]): 0.91; Growth Rate (Fibroblast; [8]): 0.55; Growth Rate (U2OS; [10]): 0.67; Growth Rate (HEK-293T; [4]): -0.21 |
| N#Cc1c(Oc2cccc(OS(=O)(=O)CCCC(F)(F)F)c2)cccc1C(F)(F)F | -0.53 | -0.47 | -0.11 | -0.08 | -0.21 | -0.18 | 0 | 0.57 | 0.82 |  | 0.81 |  | -0.16 | 0 | -0.01 | 0.31 | 0.06 | 0.55 | 0.86 | 0.28 | Growth Rate (Fibroblast; [1]): 0.09; Growth Rate (Fibroblast; [8]): 0.02; Growth Rate (U2OS; [10]): 0.96; Growth Rate (HEK-293T; [4]): 0.24 |
| COc1ccc2cc(S(=O)(=O)N[C@H](CC(=O)N[C@H](Cc3ccc(CN4[C@H](C)CCC[C@@H]4C)cc3)C(=O)N(C)C(C)C)c3ccc4c(c3)OCO4)ccc2c1.Cl | -0.65 | -0.35 | -0.6 | -0.1 | -0.65 | -0.57 | -0.02 | -0.35 | 0.61 | 0.67 | 0.57 | 0.69 | -0.08 | 0.01 | 0.02 | 0.41 | 0.01 | 0.42 | 0.63 | 0.35 | Growth Rate (Fibroblast; [2]): -0.08; Growth Rate (Fibroblast; [8]): -0.15; Growth Rate (U2OS; [3]): 0.84; Growth Rate (U2OS; [10]): 0.53 |
| CCCCCCCCCCCCC/C=C/[C@@H](O)[C@@H](N)COP(=O)(O)O | -0.68 | -0.13 | 0.19 | 0.17 | 0.53 | 0.82 | 0.63 | 0.31 |  | 0.99 | 0.89 | 0.88 | -0.22 | 0.04 | 0.27 |  | 0.48 | 0.52 | 0.95 | 0.22 | Growth Rate (U2OS; [10]): 0.89; Growth Rate (HEK-293T; [4]): -0.17 |
| NC(=O)c1cc2c(-c3ccc(C(=O)NCc4ccnc(Cl)c4)s3)cccc2s1 | -0.81 | -0.97 | -0.77 | -0.62 | -0.53 | -0.39 | 0.32 | -0.83 | 0.03 | 0.07 | 0 | -0.11 | -0.01 | -0.09 | -0.18 | -0.06 | -0.15 | 0.01 | -0.23 | 0.13 | Growth Rate (Fibroblast; [8]): -0.15; Growth Rate (U2OS; [3]): -0.27; Growth Rate (U2OS; [4]): 0.04; Growth Rate (U2OS; [10]): -0.08; Growth Rate (HEK-293T; [4]): 0.1 |
| CN1CCN(c2ccc(Nc3c4ccccc4nc4ccccc34)cc2)CC1.Cl.Cl.O | -0.84 | 0.16 | -0.56 | 0.17 | -0.39 | -0.25 | 0.11 | 0.67 | -0.02 | -0.2 | -0.17 | -0.28 | -0.94 | -0.78 | -0.62 | -0.61 | -0.48 | -0.52 | -0.09 | -0.81 | Growth Rate (Fibroblast; [2]): 0.35; Growth Rate (Fibroblast; [8]): 0.08; Growth Rate (U2OS; [3]): 0.19; Growth Rate (U2OS; [4]): 0.29; Growth Rate (HEK-293T; [4]): -0.96 |
| CSc1ccccc1N1CCN(CCCCCC(=O)NC2CCCc3ccccc32)CC1.Cl (stereo not given) |  | 0.95 | 0.31 | 0.26 | 0.05 | -0.06 | 0.23 | 0.92 | 0.96 | 0.53 | 0.92 | 0.76 | -0.01 | 0.07 | 0.16 | 0.15 | 0.29 | 0.17 | 0.43 | -0.09 | Growth Rate (Fibroblast; [1]): 0.06; Growth Rate (Fibroblast; [8]): 0.24; Growth Rate (U2OS; [1]): -0.43; Growth Rate (U2OS; [3]): 0.17; Growth Rate (U2OS; [10]): 0.94; Growth Rate (HEK-293T; [4]): -0.04 |
| Br.Br.N=C(N)NCCSC(=N)N | 0.23 | 0.98 | 0.19 |  | 0.54 | 0.49 |  | 0.56 | 0.99 | 0.96 |  | 0.37 | 0.74 | 0.76 | 0.98 | 0.92 | 1 | 0.81 | 0.88 | 0.86 | Growth Rate (Fibroblast; [2]): 0.9; Growth Rate (U2OS; [1]): -0.2; Growth Rate (U2OS; [4]): 0.98 |
| CC(C)Oc1ccc(Cc2ccc(NC3=NCCN3)cc2)cc1 | 0.07 | -0.09 | 0.4 | 0.19 | 0.28 | 0.42 | 0.46 | 0.45 | 0.75 | 0.82 | 0.91 | 0.84 | -0.2 | 0.03 | 0.16 | 0.27 | 0.24 | 0.21 | 0.74 | 0.1 | Growth Rate (Fibroblast; [8]): 0.64; Growth Rate (U2OS; [1]): -0.1; Growth Rate (U2OS; [3]): 0.26; Growth Rate (U2OS; [4]): 0.51; Growth Rate (U2OS; [10]): 0.95; Growth Rate (HEK-293T; [4]): -0.01 |
